Test results published in US20170327471A1, “Aryl sulphide and aryl sulphoxide derivatives having C-C-attached uracils as pesticides” (BAYER CROPSCIENCE AKTIENGESELLSCHAFT, priority 2014, published 2017).
Read-outs that look alike come from different tables or passages of the source.

How the values were obtained:
[1] = logP by reversed-phase HPLC (EEC Directive 79/831 Annex V.A8); assay type: physicochemical; settings: for chromatographic logP: reversed-phase C18 HPLC column
Experimental: The logP values were determined in accordance with EEC Directive 79/831 Annex V.A8 by HPLC (High Performance Liquid Chromatography) using reversed-phase columns (C 18) by the following methods:
^[a] The LC-MS determination in the acidic range was effected at pH 2.7 with 0.1% aqueous formic acid and acetonitrile (contains 0.1% formic acid) as eluents; linear gradient from 10% acetonitrile to 95% acetonitrile. Called logP (HCOOH) in the table.
^[b] LC-MS determination in the neutral range was effected at pH 7.8 with 0.001 molar aqueous ammonium hydrogencarbonate solution and acetonitrile as eluents; linear gradient from 10% acetonitrile to 95% acetonitrile. Called logP (neutral) in the table.
Calibration was effected with unbranched alkan-2-ones (having 3 to 16 carbon atoms) with known logP values (logP values determined on the basis of the retention times by linear interpolation between two successive alkanones).

Boophilus microplus = Boophilus microplus injection test; assay type: in vivo; settings: application rate, injection into engorged adult female cattle ticks, after 7 days
Experimental: 1. Boophilus microplus—Injection Test Solvent: dimethyl sulphoxide
To produce a suitable preparation of active compound, 10 mg of active compound are mixed with 0.5 ml of solvent and the concentrate is diluted with solvent to the desired concentration.
1 μl of the active compound solution is injected into the abdomen of 5 engorged adult female cattle ticks (Boophilus microplus). The animals are transferred into dishes and kept in a climate-controlled room.
Efficacy is assessed after 7 days by laying of fertile eggs. Eggs which are not visibly fertile are stored in a climate-controlled cabinet until the larvae hatch after about 42 days. An efficacy of 100% means that none of the ticks has laid any fertile eggs; 0% means that all the eggs are fertile.

Tetranychus urticae [2] = experiment: Tetranychus urticae spray test, OP-resistant (bean plants); assay type: in vivo; settings: application rate 20 ppm, after 7 days
Experimental: 5. Tetranychus urticae-Spray Test, OP-Resistant Solvent: 7 parts by weight of dimethylformamide Emulsifier: alkylaryl polyglycol ether
To produce a suitable preparation of active compound, 1 part by weight of active compound is dissolved using the stated parts by weight of solvent and made up with water containing an emulsifier concentration of 1000 ppm until the desired concentration is attained. To produce further test concentrations, the preparation is diluted with emulsifier-containing water. If the addition of ammonium salts or/and penetrants is required, these are each added in a concentration of 1000 ppm to the preparation solution.
Bean plants (Phaseolus vulgaris) heavily infested by all stages of the greenhouse red spider mite (Tetranychus urticae) are sprayed with an active compound preparation of the desired concentration.
After 7 days, the efficacy in % is determined. 100% means that all the spider mites have been killed; 0% means that none of the spider mites have been killed.

Meloidogyne incognita = Meloidogyne incognita test (sand, lettuce, solvent acetone); assay type: in vivo; settings: application rate 20 ppm, after 14 days, lettuce in sand
Experimental: 2. Meloidogyne incognita Test Solvent: 125.0 parts by weight of acetone To produce a suitable preparation of active compound, 1 part by weight of active compound is mixed with the stated amount of solvent and the concentrate is diluted with water to the desired concentration. Vessels are filled with sand, active compound solution, an egg/larvae suspension of the southern root-knot nematode (Meloidogyne incognita) and lettuce seeds. The lettuce seeds germinate and the plants develop. The galls develop on the roots. After 14 days, the nematicidal efficacy in % is determined by the formation of galls. 100% means that no galls were found; 0% means that the number of galls on the treated plants corresponds to the untreated control.

Tetranychus urticae [3] = experiment: Tetranychus urticae drench test, OP-resistant; assay type: in vivo; settings: application rate 4 ppm, after 14 days, bean plants in soil
Experimental: 6. Tetranychus urticae—Drench Test, OP-Resistant Solvent: 7 parts by weight of dimethylformamide Emulsifier: 2 parts by weight of alkylaryl polyglycol ether
To produce a suitable preparation of active compound, 1 part by weight of active compound is mixed with the stated amounts of solvent and emulsifier, and the concentrate is diluted with water to the desired concentration, where the volume of soil to be drenched has to be taken into account. Here, it has to be made sure that a concentration of 40 ppm of emulsifier in the soil is not exceeded. To produce further test concentrations, the mixture is diluted with water.
Bean plants (Phaseolus vulgaris) in pots filled with soil, which plants are heavily infested by all stages of the greenhouse red spider mite (Tetranychus urticae), are watered with an active compound preparation of the desired concentration.
After 14 days, the efficacy in % is assessed. 100% means that all spider mites have been killed; 0% means that none of the spider mites have been killed.

Phaedon cochleariae = Phaedon cochleariae spray test; assay type: in vivo; settings: application rate 500 g/ha, after 7 days, Chinese cabbage leaf discs
Experimental: 3. Phaedon cochleariae—Spray Test Solvent: 78.0 parts by weight of acetone • • 1.5 parts by weight of dimethylformamide Emulsifier: alkylaryl polyglycol ether
(§1) To produce a suitable preparation of active compound, 1 part by weight of active compound is dissolved using the stated parts by weight of solvent and made up with water containing an emulsifier concentration of 1000 ppm until the desired concentration is attained. To produce further test concentrations, the preparation is diluted with emulsifier-containing water.
After 7 days, the efficacy in % is determined. 100% means that all the beetle larvae have been killed; 0% means that no beetle larvae have been killed.

Tetranychus urticae [4] = experiment: Tetranychus urticae spray test, OP-resistant (bean leaf discs); assay type: in vivo; settings: application rate 500 g/ha, after 6 days
Experimental: 4. Tetranychus urticae—Spray Test, OP-Resistant Solvent: 78.0 parts by weight of acetone • • 1.5 parts by weight of dimethylformamide Emulsifier: alkylaryl polyglycol ether
as §1
Discs of bean leaves (Phaseolus vulgaris) infested with all stages of the greenhouse red spider mite (Tetranychus urticae) are sprayed with an active compound preparation of the desired concentration.
After 6 days, the efficacy in % is determined. 100% means that all the spider mites have been killed; 0% means that none of the spider mites have been killed.

[5] = acidic range, pH 2.7, 0.1% aqueous formic acid/acetonitrile, read-out: logP (HCOOH) = logP[a]
[6] = neutral range, pH 7.8, 0.001 molar aqueous ammonium hydrogencarbonate/acetonitrile, read-out: logP (neutral) = logP[b]
[7] = acidic range, pH 2.7, 0.1% aqueous formic acid/acetonitrile
[8] = neutral range, pH 7.8, 0.001 molar aqueous ammonium hydrogencarbonate/acetonitrile

## Cc1cc(F)c(-c2cc(=O)n(C)c(=O)n2C)cc1SCC(F)(F)F [Example I-2, 6-{2-Fluoro-4-methyl-5-[(2,2,2-trifluoroethyl)sulphanyl]phenyl}-1,3-dimethylpyrimidine-2,4(1H,3H)-dione]
[1]; [5]
  chromatographic logP: 2.86
[1]; [6]
  chromatographic logP: 2.74
Boophilus microplus
  efficacy (no fertile eggs laid): 100%
Tetranychus urticae [2]
  efficacy (spider mites killed): 100%
Meloidogyne incognita
  nematicidal efficacy (formation of galls): 90%
Tetranychus urticae [3]
  efficacy (spider mites killed): 99%
Phaedon cochleariae
  efficacy (beetle larvae killed): 83%
Tetranychus urticae [4]
  efficacy (spider mites killed): 100%

## CCn1c(=O)c(F)c(-c2cc(SCC(F)(F)F)c(C)cc2F)n(C)c1=O [Example I-3, 3-Ethyl-5-fluoro-6-{2-fluoro-4-methyl-5-[(2,2,2-trifluoroethyl)-sulphanyl]phenyl}-1-methylpyrimidine-2,4(1H,3H)-dione]
[1]; [5]
  chromatographic logP: 3.32
[1]; [6]
  chromatographic logP: 3.42

## Cc1cc(C)c(-c2cc(=O)n(C)c(=O)n2C)cc1SCC(F)(F)F [Example I-4]
[1]; [5]
  chromatographic logP: 2.98

## CCCn1c(-c2cc(SCC(F)(F)F)c(C)cc2F)cc(=O)n(CCC)c1=O [Example I-5]
[1]; [7]
  logP (HCOOH) = logP[a]: 4.26
[1]; [8]
  logP (neutral) = logP[b]: 4.16
Tetranychus urticae [4]
  efficacy (spider mites killed): 90%

## Cc1cc(F)c(-c2cc(=O)n(C(C)C)c(=O)n2C(C)C)cc1SCC(F)(F)F [Example I-6]
[1]; [7]
  logP (HCOOH) = logP[a]: 4.52
[1]; [8]
  logP (neutral) = logP[b]: 4.42
Tetranychus urticae [4]
  efficacy (spider mites killed): 100%

## CCn1c(-c2cc(SCC(F)(F)F)c(C)cc2F)cc(=O)n(CC)c1=O [Example I-7]
[1]; [7]
  logP (HCOOH) = logP[a]: 3.54
[1]; [8]
  logP (neutral) = logP[b]: 3.47
Tetranychus urticae [2]
  efficacy (spider mites killed): 100%
Tetranychus urticae [4]
  efficacy (spider mites killed): 90%

## CCn1c(=O)[nH]c(-c2cc(SCC(F)(F)F)c(C)cc2F)c(F)c1=O [Example I-8]
[1]; [7]
  logP (HCOOH) = logP[a]: 2.72

## Cc1cc(F)c(-c2cc(=O)n(C(C)C)c(=O)n2C(C)C)cc1[S+]([O-])CC(F)(F)F (stereo not drawn) [Example I-9]
[1]; [7]
  logP (HCOOH) = logP[a]: 3.19
[1]; [8]
  logP (neutral) = logP[b]: 3.10
Boophilus microplus
  efficacy (no fertile eggs laid): 100%
Tetranychus urticae [4]
  efficacy (spider mites killed): 100%

## CCn1c(-c2cc([S+]([O-])CC(F)(F)F)c(C)cc2F)cc(=O)n(CC)c1=O (stereo not drawn) [Example I-10]
[1]; [7]
  logP (HCOOH) = logP[a]: 2.37
[1]; [8]
  logP (neutral) = logP[b]: 2.28
Boophilus microplus
  efficacy (no fertile eggs laid): 100%
Tetranychus urticae [2]
  efficacy (spider mites killed): 100%
Tetranychus urticae [3]
  efficacy (spider mites killed): 95%
Tetranychus urticae [4]
  efficacy (spider mites killed): 100%

## CCn1c(=O)c(F)c(-c2cc([S+]([O-])CC(F)(F)F)c(C)cc2F)n(C)c1=O (stereo not drawn) [Example I-11]
[1]; [7]
  logP (HCOOH) = logP[a]: 2.20
[1]; [8]
  logP (neutral) = logP[b]: 2.19
Boophilus microplus
  efficacy (no fertile eggs laid): 100%
Tetranychus urticae [4]
  efficacy (spider mites killed): 100%

## Cc1cc(C)c([S+]([O-])CC(F)(F)F)cc1-c1cc(=O)n(C)c(=O)n1C (stereo not drawn) [Example I-12]
[1]; [7]
  logP (HCOOH) = logP[a]: 1.89
[1]; [8]
  logP (neutral) = logP[b]: 1.82
Boophilus microplus
  efficacy (no fertile eggs laid): 100%
Tetranychus urticae [4]
  efficacy (spider mites killed): 100%

## Cc1cc(F)c(-c2cc(=O)n(C)c(=O)[nH]2)cc1SCC(F)(F)F [Example I-13, 6-{2-Fluoro-4-methyl-5-[(2,2,2-trifluoroethyl)sulphanyl]phenyl}-3-methylpyrimidine-2,4(1H,3H)-dione]
[1]; [5]
  chromatographic logP: 2.38
[1]; [6]
  chromatographic logP: 2.25

## Cc1cc(F)c(-c2cc(=O)[nH]c(=S)[nH]2)cc1SCC(F)(F)F [Example I-14, 6-{2-Fluoro-4-methyl-5-[(2,2,2-trifluoroethyl)sulphanyl]phenyl}-2-thioxo-2,3-dihydropyrimidin-4(1H)-one]
[1]; [5]
  chromatographic logP: 2.34
[1]; [6]
  chromatographic logP: 1.54

## Cc1cc(F)c(-c2cc(=O)n(CC(F)(F)F)c(=S)n2C)cc1SCC(F)(F)F [Example I-15]
[1]; [7]
  logP (HCOOH) = logP[a]: 4.34
Tetranychus urticae [2]
  efficacy (spider mites killed): 100%
Tetranychus urticae [3]
  efficacy (spider mites killed): 100%
Phaedon cochleariae
  efficacy (beetle larvae killed): 100%
Tetranychus urticae [4]
  efficacy (spider mites killed): 90%

## Cc1cc(F)c(-c2c(Cl)c(=O)n(C)c(=O)n2C)cc1SCC(F)(F)F [Example I-16, 5-Chloro-6-{2-fluoro-4-methyl-5-[(2,2,2-trifluoroethyl)sulphanyl]phenyl}-1,3-dimethylpyrimidine-2,4(1H,3H)-dione]
[1]; [5]
  chromatographic logP: 3.15
Tetranychus urticae [4]
  efficacy (spider mites killed): 90%

## Cc1cc(F)c(-c2cc(=O)n(C)c(=O)[nH]2)cc1[S+]([O-])CC(F)(F)F (stereo not drawn) [Example I-17]
[1]; [7]
  logP (HCOOH) = logP[a]: 1.41
[1]; [8]
  logP (neutral) = logP[b]: 1.43

## CCn1c(=O)c(F)c(Cl)n(C)c1=O [II-01, 6-chloro-3-ethyl-5-fluoro-1-methylpyrimidine-2,4(1H,3H)-dione]
[1]; [5]
  chromatographic logP: 1.31

## CCn1c(=O)c(C)c(Cl)n(C)c1=O [II-02, 6-chloro-3-ethyl-1,5-dimethylpyrimidine-2,4(1H,3H)-dione]
[1]; [5]
  chromatographic logP: 1.59

## CCOC(=O)CC(=O)c1cc(SCC(F)(F)F)c(C)cc1F [VI-01, ethyl 3-{2-fluoro-4-methyl-5-[(2,2,2-trifluoroethyl)sulphanyl]phenyl}-3-oxopropanoate]
[1]; [5]
  chromatographic logP: 3.57
[1]; [6]
  chromatographic logP: 3.59
